# Experimental data published in ChEMBL document CHEMBL1157109, “Differentiating and apoptotic dose-dependent effects in (-)-alpha-bisabolol-treated human endothelial cells” (2010).
# Activity calls are given as the source filed them. The calls are words filed in the database; no cut-off is given here.
# Legend:
# HUVEC [1] = test: Cytotoxicity against HUVEC at 5 uM after 6 hrs by Trypan blue dye exclusion test; assay type: functional, Homo sapiens
# HUVEC [2] = test: Induction of apoptosis in HUVEC assessed as cytochrome C release at 5 uM after 4 hrs by Western blot analysis; assay type: functional, cell-based; details: Homo sapiens
# HUVEC [3] = test: Induction of apoptosis in HUVEC assessed as procaspase3 activation at 5 uM after 4 hrs by Western blot analysis; assay type: functional, cell-based; details: Homo sapiens
# HUVEC [4] = test: Induction of apoptosis in HUVEC assessed as down-regulation of Bcl2 protein level at 5 uM after 0.5 hr by Western blot analysis; assay type: functional, cell-based; details: Homo sapiens
# HUVEC [5] = test: Cytotoxicity against HUVEC at 0.15 uM after 72 hrs by trypan blue dye exclusion test relative to control; assay type: functional, Homo sapiens
# HUVEC [6] = test: Cytotoxicity against HUVEC at 0.25 uM after 72 hrs by trypan blue dye exclusion test relative to control; assay type: functional, Homo sapiens
# HUVEC [7] = test: Cytotoxicity against HUVEC at 0.35 uM after 72 hrs by trypan blue dye exclusion test relative to control; assay type: functional, Homo sapiens
# HUVEC [8] = test: Cytotoxicity against HUVEC at 0.5 uM after 72 hrs by trypan blue dye exclusion test relative to control; assay type: functional, Homo sapiens
# HUVEC [9] = test: Induction of apoptosis in HUVEC assessed as procaspase3 activation at 0.25 uM after 4 hrs by Western blot analysis; assay type: functional, cell-based; details: Homo sapiens
# HUVEC [10] = test: Antiangiogenic activity in HUVEC assessed as decrease in cell migration at 0.25 uM after 4 hrs in the presence of FGF2 relative to control; assay type: functional, cell-based; details: Homo sapiens
# HUVEC [11] = test: Angiogenic activity against HUVEC assessed as organization of cells in a capillary like structure at 0.1 uM after 4 hrs; assay type: functional, cell-based; details: Homo sapiens
# HUVEC [12] = test: Angiogenic activity against HUVEC assessed as organization of cells in a capillary like structure at 0.25 uM after 4 hrs; assay type: functional, cell-based; details: Homo sapiens
# HUVEC [13] = test: Antiangiogenic activity against HUVEC assessed as inhibition of capillary tube organization at 0.5 uM after 4 hrs; assay type: functional, cell-based; details: Homo sapiens
# HUVEC [14] = test: Cytotoxicity against HUVEC assessed as change in cell number at 25 uM after 72 hrs by trypan blue dye exclusion test; assay type: functional, cell-based; details: Homo sapiens
# HUVEC [15] = test: Induction of apoptosis in HUVEC assessed as effect on bax protein level after 1 hr by Western blot analysis; assay type: functional, cell-based; details: Homo sapiens
# HUVEC [16] = test: Induction of apoptosis in HUVEC assessed as cytochrome C release at 5 uM after 24 hrs by Western blot analysis; assay type: functional, cell-based; details: Homo sapiens
# HUVEC [17] = test: Induction of apoptosis in HUVEC assessed as procaspase3 activation at 5 uM after 24 hrs by Western blot analysis; assay type: functional, cell-based; details: Homo sapiens
compound,measurement,setting,value
CC(C)=CCC[C@](C)(O)[C@@H]1CC=C(C)CC1 [LEVOMENOL],Activity,HUVEC [1],>60%
same,Activity,HUVEC [2],Active
same,Activity,HUVEC [3],Active
same,Activity,HUVEC [4],Active
same,Activity,HUVEC [5],65%
same,Activity,HUVEC [6],78%
same,Activity,HUVEC [7],82%
same,Activity,HUVEC [8],90%
same,Activity,HUVEC [9],inactive
same,Activity,HUVEC [10],Active
same,Activity,HUVEC [11],Active
same,Activity,HUVEC [12],Active
same,Activity,HUVEC [13],Active
same,Activity,HUVEC [14],inactive
same,Activity,HUVEC [15],inactive
same,Activity,HUVEC [16],Active
same,Activity,HUVEC [17],Active
